Reference: patent US7320995B2, “Benzimidazoles and benzothiazoles as inhibitors of map kinase” (Eli Lilly and Company, priority 2002, dated 2008)

What was measured:
angiogenesis = settings: J. R. Jackson, et al., 1998; cited from earlier work
[1] = tested on: TNF-α production in mouse peritoneal macrophages; test: Inhibition of TNF-α in vitro, mouse peritoneal macrophages, Luminex; type: cell-based; settings: Peritoneal macrophage; LPS and interferon-γ stimulated mouse peritoneal macrophages, 18 hours; read-out: IC50, suppression of TNF-α in vitro
Description: At day 4 or 5 post-injection the mice are sacrificed and then injected i.p. with 4 mL Dulbecco's phosphate-buffered saline (BioWhittaker) and the peritoneal macrophages are withdrawn by syringe. Mouse peritoneal macrophages are counted with a hemocytometer and adjusted to 2.5×10^6 cells/ml complete media (RPMI-1640 medium containing 10% fetal bovine serum). Cells are plated in 96-well flat-bottom plates at 5×10^5 cells per 200 μl per well and allowed to settle and adhere to the bottom of the well for at least 3 hours. […] (20 μL/well). The cells are then treated with a mixture of 50 ng/L lipopolysaccharide (LPS) and 10 U/mL interferon-γ for 18 hours at 37° C. (20 μL/well). The conditioned media is harvested and assayed for TNF-α production using the Luminex procedure. […] The premixed anti-cytokine conjugated beads are vortexed (25×) vigorously for 30 seconds. The anti-cytokine conjugated beads are diluted to a 1× concentration using 1× Bio-Plex Assay Buffer. For every plate, 240 μL of the pre-mixed beads is added to 5760 μL of Bio-Plex Assay Buffer. […] The blocking buffer is filtered through using a Millipore filtration system and then toweled dry. Two washes are performed on the filter plate with 100 μl/well of Bio-Plex Assay Buffer and toweled dry. The 1× anti-cytokine conjugated beads are vortexed for 15 seconds and added 50 μL to each well. This is filtered through and toweled dry. Two washes are performed on plates with 100 μl/well of Bio-Plex Wash Buffer. Again, it is filtered through and toweled dry. 50 μL of sample or standard is added to each sample well. This is incubated for 60 seconds at room temperature on a shaker protected from light at setting 6 and then for 30 minutes at setting 3 and then placed in the refrigerator overnight. […] Standards and samples are read on a Luminex machine. These intensity readings are then converted to picogram/milliliter units based on a 12-point standard curve created in duplicate using a four-parameter logistic regression method (Bio-Plex Manager, Versions 2.0 and 3.0, Bio-Rad), and the IC50 calculated.

TNF-α = test: Effect on intra-articular LPS induced TNF-α (synovial lavage fluid, ELISA); type: in vivo, female Lewis rats; settings: orally, one hour before intra-articular LPS, lavage after two hours
Description: Intra-articular injection of LPS into rat […] induces the synthesis of TNF-α, which can be measured in synovial lavage fluid. High levels of TNF-α are detectable within 2 hours. Since the joint is the site where arthritis develops, this model can rapidly determine whether an orally administered compound has an effect on an inflammatory response in the synovium.
Six female Lewis rats (150-200 g) are place in each treatment group. The animals are given vehicle (1% NaCarboxymethylcellulose-0.25% Tween 80) or Example 77 (free base) (1 mg/kg, 3 mg/kg, 10 mg/kg, and 30 mg/kg) orally. One hour later, 10 μl LPS (10 μg) is administered intra-articulately into the right ankle of each rat, while the left ankle receives 10 μL of saline. After two hours, each […] is laved with 100 μL of saline. The lavage is collected and stored at −80° C. • Group#1: Vehicle (1% NaCMC-0.25% Tween 80, 1 mL, PO) • Group#2: Example 77 (free base) (1 mg/kg, 1 mLl, PO) • Group#3: Example 77 (free base) (3 mg/kg, 1 mL, PO) • Group#4: Example 77 (free base) (10 mg/kg, 1 mL, PO) • Group#5: Example 77 (free base) (30 mg/kg, 1 mL, PO)
TNF-α was measured with a commercially available ELISA kit (R&D, RTA00). […] The TMED50=10 mg/kg for Example 77 in this assay.

[2] = tested on: MAPKAP-K2 phosphorylation in P815 tumors; test: In vivo target inhibition study in P815 mastocytoma model; set-up: species or system DBA/2 mice; settings: single oral dose 30 mg/kg
Description: In vivo target inhibition is determined by measuring the effect of inhibitor treatment on the phosphorylation of MAPKAP-K2 expressed in P815 tumor tissues. Tumors in DBA/2 mice received P815 cells subcutaneous implantation are allowed to grow to a size of 300-500 mg without treatment. Tumor bearing mice are then given oral administration of Example 77 (free base) or vehicle. To investigate time course related target inhibition by Example 77 (free base), tumors are harvested from CO2 sacrificed animals at the indicated times (3 hours, 6 hours, 12 hours, and 18 hours) after compound is dosed at 30 mg/kg. Dose-dependent target inhibition by Example 77 (free base) is investigated by harvesting tumors at 3 hours after orally given different doses of Example 77 (free base) or vehicle. Harvested tumors are immediately snap frozen onto dry ice, pulverized, homogenized and lysed in cooled lysis buffer containing proteinase and phosphatase inhibitors. After centrifugation to remove cell debris, supernatants containing 100 microgram total proteins are resuspended in 2×Tris-Glycin loading buffer and subjected to sodium dodecyl sulfate-polyacrylamide gel electrophoresis (10% Tris-Glycine) under reducing conditions. […] Expression level of phospho-p38 MAP kinase and total p-38 MAP kinase is also monitored by similar western blotting procedure.

[3] = tested on: B16F10 melanoma lung metastases; test: Inhibition of B16F10 melanoma lung metastases; type: in vivo, C57B16 mice; settings: day -1 to 16
Description: The B16F10 melanoma cell line is obtained from the American Type Culture Collection, Rockville, Md. The cells are cultured in RPMI-1640 medium supplemented with 10% fetal calf serum. The cells grown in vitro are harvested during their exponential growth phase by gentle trypsinization, washed twice in medium, and resuspended in serum-free RPMI-1640 medium. The number of monodisperse viable cells is determined using a hemocytometer and adjusted to 1×10^6 cells/mL. Tumor cells are injected intravenously into the tail vein of normal C57B16 mice with an inoculum volume of 0.2 ml containing 200,000 cells. Mice are treated with test compound or vehicle control starting 1 day before i.v. tumor inoculation. Example 77 (free base) is prepared as a suspension formulation in 1% NaCMC/0.25% polysorbate 80 and probe sonicated in an injection volume of 1% body weight (e.g., the 30 mg/kg dose level is prepared at 3 mg/ml and 0.2 cc was administered per 20 gram mouse). Mice are treated orally tid. with the compound at 30, 10, and 3 mg/kg (90, 30, and 9 mg/kg/day) from days −1 through 16 after tumor cell inoculation. Control mice receive the vehicle alone in an identical manner. On day 16, the mice are sacrificed, and the lungs are harvested and fixed in 3% paraformaldehyde. Lung lesions are quantitated by manual counting under a dissecting microscope.
The test compound was tested in the B16F10 melanoma lung metastasis model orally at 3, 10, and 30 mg/kg, tid from one day before to 16 days after i.v. tumor inoculation (total dose 9, 30 and 90 mg/kg/day). The lungs were harvested on day 16 and lung lesions were quantitated.

[4] = tested on: MAPKAPK-2 phosphorylation (p38 MAPK) in B16F10 tumors; test: B16F10 target (phosphorylated MAPKAPK-2) studies, immuno-blot of tumors; type: in vivo, C57B16 mice
P815 tumors = test: Inhibition of P815 tumor growth in vivo; set-up: species or system DBA/2 mice
Description: Female(6-8 weeks old) DBA/2 mice (Taconic) are implanted subcutaneously into the hind flank region on day 0 with P815 cells (0.5×10^6 cells in 200 ul of RPMI 1640). P815 tumor cells are purchased from ATCC and are cultured in RPMI 1640 medium, supplemented with glutamine and 10% bovine serum at 37° C. in 5% CO2 cell culture incubator. Tumor-bearing animals are treated with oral administration of Example 77 (free base), at different doses or vehicle with frequency of three times a day started on the day of implantation. Tumor growth is monitored every 2 days by measuring perpendicular diameters. Tumor volume expressed in milligram (mg) is determined as the product of the largest diameter (a) and its perpendicular (b) according to the formula [tumor volume=a×b^2×0.536].

[5] = Rat collagen induced arthritis efficacy model; type: in vivo, female Lewis rats
Description: Female Lewis rats ((≅190 gm, Charles River Labs) are immunized with Bovine type II collagen (2 mg/ml) emulsified with an equal volume of adjuvant (aluminum hydroxide). […]. The rats are immunized with approximately […] of the emulsion intradermally on the back near the base of the tail. All animals are re-immunized 7 days later according to the same protocol. The rats begin to develop arthritis (characterized by swelling and redness of one or both ankles) from 12 to 14 days after the first immunization. The rats are equally distributed into five treatment groups at the first signs of arthritis and treatment is initiated with each rat dosed bid for 14 days.
• Group 1 Vehicle (1% NaCarboxymethylcellulose+0.25% Tween 80) 1 mL, PO, Bid×14 days • Group 2 Example 77 (free base), 5 mg/kg, 1 mL, PO, Bid×14 • Group 3 Example 77 (free base), 15 mg/kg, 1 mL, PO, Bid×14 • Group 4 Example 77 (free base), 30 mg/kg, 1 mL, PO, Bid×14 • Group 5 Prednisolone 10 mg/kg, 1 mL, PO, qd×14
Ankle diameter is measured with calipers 5 days a week and recorded. Data is expressed as the area under the curve (AUC) generated from the composite inflammation scores and statistical analysis performed.
At the termination of the study, animals were sacrificed and ankles processed for histological evaluation. […]

Nc1nccc(-c2c(-c3ccc(F)cc3)ncn2C2CCNCC2)n1 [SB22025]
inhibition of angiogenesis (angiogenesis): has been shown to inhibit angiogenesis

CC(C)S(=O)(=O)n1c(N)nc2ccc(-c3nc(-c4ccncc4)[nH]c3-c3ccccc3)cc21 [Example 16, 1-isopropylsulfonyl-2-amino-6-(2-(pyridin-4-yl)-5-(phenyl)-imidazol-4-yl)-benzimidazole]
IC50 [1]: < 100 nM

CC(C)S(=O)(=O)n1c(N)nc2ccc(-c3nc(-c4cccs4)[nH]c3-c3ccccc3)cc21 [Example 1, 1-isopropylsulfonyl-2-amino-6-(2-(thien-2-yl)-5-(phenyl)-imidazol-4-yl)-benzimidazole methanesulfonate]
IC50 [1]: < 100 nM

CC(C)S(=O)(=O)n1c(N)nc2ccc(-c3nc(-c4c(F)cccc4F)[nH]c3-c3ccccc3)cc21 [Example 77, 1-isopropylsulfonyl-2-amino-6-(2-(2,6-difluorophenyl)-5-(phenyl)-imidazol-4-yl)-benzimidazole]
TMED50, inhibition of TNF-α synthesis in synovial lavage fluid (TNF-α): 10 mg/kg | earliest time of the inhibitory effect on MAPKAP-K2 phosphorylation [2]: 3 h | time to which the inhibitory effect on MAPKAP-K2 phosphorylation extended [2]: 12 h | inhibition of lung metastasis formation ([3]; 3 mg/kg orally tid): 54% | inhibition of lung metastasis formation ([3]; 10 mg/kg orally tid): 73% | inhibition of lung metastasis formation ([3]; 30 mg/kg orally tid): 95% | time for which p38 MAPK activity was inhibited ([4]; 30 mg/kg, time course study): up to 9 hours | ANOVA TMED50, inhibition of MAPKAPK-2 phosphorylation ([4]; 2.5 hours after p.o. dosing): 3 mg/kg | lowest dose with appreciable inhibition of MAPKAPK-2 phosphorylation ([4]; 2.5 hours after p.o. dosing): 0.3 mg/kg | reduction of the phosphorylation level of MAPKAPK-2 in the tumors ([4]; doses >30 mg/kg): > 80% | inhibition of tumor volume (P815 tumors; 3 mg/kg oral tid): 55% | inhibition of tumor volume (P815 tumors; 30 mg/kg oral tid): 67% | maximum reduction in ankle diameter ([5]; 30 mg/kg PO bid x 14 days): 46%

C[C@]12C=CC(=O)C=C1CC[C@@H]1[C@@H]2[C@@H](O)C[C@@]2(C)[C@H]1CC[C@]2(O)C(=O)CO [Prednisolone, reference compound]
inflammation (ankle diameter) ([5]; 10 mg/kg PO qd x 14): reduced the inflammation to pre-arthritic levels

CC(C)S(=O)(=O)n1c(N)nc2ccc(-c3nc(-c4nccs4)[nH]c3-c3ccccc3)cc21 [Example 17, 1-isopropylsulfonyl-2-amino-6-(2-(thiazol-2-yl)-5-(phenyl)-imidazol-4-yl)-benzimidazole]
IC50 [1]: < 100 nM
